# What was measured:
# zebra fish = test: Exploration of concentration in zebra fish (toxicity and death); type: in vivo; conditions: 0.1 to 500 μg/mL in fish farm water, 30 zebra fishes per concentration
# Description: Fish farm water of wild-type AB strain zebra fish Crohn's disease model (1 L reverse osmosis water was added with 200 mg instant sea salt with a conductivity of […], pH value of 6.9˜7.2 and hardness of 53.7˜71.6 mg/L CaCO3) was added with the andrographolide in the concentrations of 0 μg/mL, 0.1 μg/mL, 1 μg/mL, 10 μg/mL, 100 μg/mL and 500 μg/mL. At each concentration, 30 zebra fishes were treated, during which death number of the zebra fishes was counted daily and the dead fishes were removed in time. After treatment, the death number of the zebra fishes in each group was analyzed statistically to draw the optimum concentration-effect curve by using JMP software and calculate MNLC. […] As a result, the following four concentrations were selected for efficacy evaluation in Crohn's disease in this study: 50 μg/mL, 100 μg/mL, 250 μg/mL and 500 μg/mL.
# [1] = system: zebra fish Crohn's disease model; test: Zebra fish Crohn's disease model (TNBS), efficacy; type: in vivo; conditions: 48 hours
# Description: Crohn's disease model (mainly inflammation) was built by using TNBS (2,4,6-trinitrobenzenesulfonic acid), and 30 zebra fishes were randomly divided into each treating group. […] Image analysis software was used to analyze the pictures. Moreover, the intestinal mucosal thickness, intestinal lumen diameter and intestinal lumen area were observed carefully under a microscope and the intestinal lumen diameter and intestinal lumen area were analyzed quantitatively. Therapeutical efficacy of the tested drug in zebra fish Crohn's disease was calculated in accordance with the intestinal lumen area in each group. The calculation formula was presented as follows: Therapeutical efficacy (%)=[1−(the administration group−the blank control group)/(the model group−the blank control group)]×100%
# Statistically analyzed results were expressed as mean±SE. Variance analysis was used for comparison among many groups, and Dunnett's T test for comparison between two groups.
# [2] = system: zebra fish Crohn's disease model; test: Zebra fish Crohn's disease model (TNBS), efficacy; type: in vivo; conditions: for Inflammation regression ratio: based on neutrophil infiltration; for Number of Neutrophil: intestinal tissue, x ± SE, n = 10; for Ratio with the blank control group: neutrophil number
# DSS-induced UC mice = test: DSS-induced UC mouse model, disease active index; type: in vivo
# Description: 4 Dose Designing and Grouping • 4.1 Grouping: quarantine-qualified 84 mice were randomly divided into 6 groups: the model control group, the positive control group, the tested drug low-dose intragastric group, the tested drug high-dose intragastric group, the tested drug low-dose intracolonical group and the tested drug high-dose intracolonical group, 14 mice per group. All animals drank 5% DSS solution daily for consecutive 14 days to establish UC model. Animals were administrated with the drug for treatment on the 2nd day after being given 5% DSS drinking water. • 4.2 Dose: in this study, dose of administration of the mice in all groups was designed on the basis of client's requirements, and the same doses were adopted in both intragastric and intracolonical groups. Animals were not treated in the model control group, the positive control group (mesalazine enteric tablet, 227.5 mg·kg^−1·d^−1), the andrographolide low-dose intragastric group (60 mg·kg^1·d^−1), the andrographolide high-dose intragastric group (180 mg·kg^−1·d^−1), the andrographolide low-dose intracolonical group (60 mg·kg^−1·d^−1) and the andrographolide high-dose intracolonical group (180 mg·kg^−1·d^−1).
# 5 Method • 5.1 Method of making UC model: all animals drank 5% DSS solution daily for consecutive 14 days. • 5.2 Method of administration: on the 2nd day after modeling, the mice were treated intragastrically or intracolonically with the drug at 1 mL/100 g once a day for consecutive 14 days. • 5.3 Method for sampling in experiment: 2 hours after the last administration, the mice were killed by cervical vertebra dislocation and abdomen was opened to separate the colon. Along mesenteric side, the intestinal lumen was cut and rinsed with 4° C. normal saline and spread on a plastic plate. • 5.4 Method for evaluating disease active index (DAI): the disease active index was assessed at the 7th and 14th day after administration. The method was presented together with the following three parameters: the body weight loss percentages (unchanged BW: 0 score, 1˜5: 1 score, 5˜10: 2 score, 10˜15: 3 score, more than 15: 4 score), stool viscosity (normal stool: 0 score, loosen stool: 2 score, diarrhea: 4 score) and blood stool (normal stool: 0 score, occult blood stool: 2 score and positive blood stool: 4 score). Total score of three parameters was divided by 3 to give the DAI, namely DAI=(BW index score+stool character score+stool blood score)/3.
# 6 Observation Indices • 6.1 Observation: the general clinical symptoms in the mice were observed daily from the beginning to the end of the experiment, and the stool, mental status and death status were recorded. • 6.2 Body weight: BW was recorded weekly from the beginning to the end of the experiment. • 6.3 Calculation of DAI: DAI was calculated on the 7th and 14th day after administration so as to assess disease activity. • 6.4 The colon mucosal tissue 8˜10 cm away from the anus was sampled, embedded with paraffin and stained with routine HE. Colon mucosal injury was observed by a microscope and histological injury was scored based on the following indices: ulcer inflammatory granuloma, fibrosis and pathological degree.
# Data were expressed as mean+standard deviation (x±S). All numerical variables were analyzed with SPSS13.0 software by one-way ANOVA. T-test analysis was used for inter-group comparison.
# [3] = Solubility of the drug in DMSO and fish farm water; type: physicochemical
# [4] = andrographolide high-dose 180 mg/kg, intracolonical
# [5] = andrographolide high-dose 180 mg/kg, intragastric
# [6] = andrographolide low-dose 60 mg/kg, intracolonical
# [7] = andrographolide low-dose 60 mg/kg, intragastric
smiles,measurement,setting,value
C=C1CC[C@@H]2[C@](C)(CO)[C@H](O)CC[C@@]2(C)[C@@H]1C/C=C1/C(=O)OC[C@H]1O [Andrographolide],Toxicity and death in zebra fish,zebra fish,no toxicity and death were found
same,Intestinal lumen area reduced by (therapeutical efficacy),[1]; andrographolide 50 μg/ml,38±12.9%
same,Intestinal lumen area reduced by (therapeutical efficacy),[1]; andrographolide 100 μg/ml,49±8.9%
same,Intestinal lumen area reduced by (therapeutical efficacy),[1]; andrographolide 250 μg/ml,65±14.7%
same,Intestinal lumen area reduced by (therapeutical efficacy),"[2]; andrographolide 500 μg/ml, 48 hours",65±10.1%
same,Inflammation regression ratio,[2]; andrographolide 50 μg/ml,45 ± 3.7 %
same,Inflammation regression ratio,"[2]; andrographolide 50 μg/ml, listed as andrographolide",45±3.74%
same,Inflammation regression ratio,[2]; andrographolide 100 μg/ml,46 ± 3.7 %
same,Inflammation regression ratio,"[2]; andrographolide 100 μg/ml, listed as andrographolide",46±3.74%
same,Inflammation regression ratio,[2]; andrographolide 250 μg/ml,63 ± 4.4 %
same,Inflammation regression ratio,"[2]; andrographolide 250 μg/ml, listed as andrographolide",63±4.42%
same,Inflammation regression ratio,[2]; andrographolide 500 μg/ml,79 ± 9.0 %
same,Inflammation regression ratio,"[2]; andrographolide 500 μg/ml, listed as andrographolide",79±8.98%
same,Number of Neutrophil,[2]; andrographolide 50 μg/ml,18 ± 0.54
same,Number of Neutrophil,[2]; andrographolide 100 μg/ml,17 ± 0.54
same,Number of Neutrophil,[2]; andrographolide 250 μg/ml,15 ± 0.64
same,Number of Neutrophil,[2]; andrographolide 500 μg/ml,13 ± 1.30
same,Ratio with the blank control group,[2]; andrographolide 50 μg/ml,1.97 ± 0.06
same,Ratio with the blank control group,[2]; andrographolide 100 μg/ml,1.96 ± 0.06
same,Ratio with the blank control group,[2]; andrographolide 250 μg/ml,1.67 ± 0.07
same,Ratio with the blank control group,[2]; andrographolide 500 μg/ml,1.40 ± 0.15
same,DAI on the 7th day,DSS-induced UC mice; [4],1.36 ± 0.64
same,DAI on the 14th day,DSS-induced UC mice; [4],1.35 ± 0.18
same,DAI on the 7th day,DSS-induced UC mice; [5],1.43 ± 0.38
same,DAI on the 14th day,DSS-induced UC mice; [5],1.64 ± 0.83
same,DAI on the 7th day,DSS-induced UC mice; [6],1.67 ± 0.65
same,DAI on the 14th day,DSS-induced UC mice; [6],1.77 ± 0.95
same,DAI on the 7th day,DSS-induced UC mice; [7],1.63 ± 0.99
same,DAI on the 14th day,DSS-induced UC mice; [7],2.01 ± 0.80
same,solubility,"[3]; DMSO, organic solvent or mixture",~250 mg/mL
same,Concentration at which the drug began to precipitate,[3]; fish farm water,≥ 500 µg/mL
